# Experimental data: US20150224164A1, “TREATMENT OF AUTISM SPECTRUM DISORDERS USING GLYCYL-L-2-METHYLPROLYL-L-GLUMATIC ACID” (Neuren Pharmaceuticals Limited, priority 2013, published 2015)
# Where a SMILES comes first, the peptide text is derived from it.
# Assays:
# fmr1 knockout mice [1] = assay: Successive alleys test, fmr1 knockout mice; assay type: in vivo, mouse; details: 100 mg/kg i.p. 28 days
# Experimental: G-2-MePE was administered at the dose of 100 mg/kg i.p. in 0.1 ml saline, once daily for 28 days. Vehicle-treated animals were injected with 0.1 ml saline daily for 28 days. Thereafter, drug or vehicle treatments were stopped and animals were tested on successive days until all tests were completed. Finally, the animals were sacrificed for determining expression of pAkt and pERK
# The successive alleys test was used to assess the effects of G-2-MePE on anxiety in the fmr1 KO mice. The apparatus consists of four successive, increasingly anxiogenic, linearly connected alleys (each succeeding alley is painted a lighter colour, has lower walls and/or is narrower than the previous alley). Animals were placed at the closed end of alley 1, facing the end wall. The latency to first enter each alley, the amount of time spent in each alley, and the number of entries into each alley was recorded during a total test time of 300 s.
# ERK1/2 = assay: Western blot of ERK and phosphorylated ERK; assay type: in vivo, mouse; details: 100 mg/kg 4 weeks, 12 days after last injection
# Experimental: Phosphorylated Extracellular Signal-Regulated Protein Kinase (ERK) and Protein Kinase B (Akt) expression was measured by Western blot analysis in lymphocytes from fmr1 KO and wild-type animals administered ether vehicle or G-2MePE (100 mg/kg, i.p.; 28 days) treated in the behavior experiments as previously described (Lopez Verrilli et al. 2009). ERK is a classical MAPK signal transduction protein, responsible for growth factor transduction, proliferation, cytokine response to stress and apoptosis. […]
# To conduct the western blots, antibodies were used against Akt ( 1/1000) (Cell Signaling), ERK1/2 ( 1/2000) (Cell Signaling), antiphospho-Akt ( 1/1000) and antiphospho-ERK ( 1/2000) (Cell Signaling). Total Akt and ERK 1/2 protein content (phosphorylated) were evaluated by blotting membranes with antiphospho-Akt ( 1/1000) and antiphospho-ERK antibodies ( 1/2000) (Cell Signaling). Akt or ERK phosphorylation was normalized to protein content in the same sample and expressed as % of change with respect to basal conditions, considering basal levels as 100%. Protein loading was evaluated by stripping and re-blotting membranes with b-actin antibody ( 1/1000) (Sigma Chemical Co.). […]
# MeCP2 deficient mice = assay: Seizure activity, electroencephalographic recordings (Example 12); details: mouse, in vivo
# Source text: Electroencephalograpic recordings of wild-type mice and MeCP2 deficient mice treated with either saline or G-2-MePE are obtained using methods described in U.S. Pat. No. 7,714,020.
# fmr1 knockout mice [2] = assay: Elevated plus maze, fmr1 knockout mice; assay type: in vivo, mouse
# Experimental: G-2-MePE was administered at the dose of 100 mg/kg i.p. in 0.1 ml saline, once daily for 28 days. Vehicle-treated animals were injected with 0.1 ml saline daily for 28 days. Thereafter, drug or vehicle treatments were stopped and animals were tested on successive days until all tests were completed. Finally, the animals were sacrificed for determining expression of pAkt and pERK The Elevated Plus Maze (EPM) is a further test system for examining anxiety and locomotor activity. The EPM was built according to the description of Lister (Lister 1987). Briefly, the maze consisted of two open and two closed arms opposite each other in a plus shape, raised above floor height. The open arms were more exposed and therefore more anxiogenic. Wild-type mice therefore spent more time in the closed arms and visited them more. Mice were tested for 5 min and their behaviour was recorded. Measures taken included time spent in the arms and the center of the maze, and number of arm entries.
# fmr1 knockout mice [3] = assay: Social behavior, bouts of sniffing, fmr1 knockout mice; assay type: in vivo, mouse; details: 100 mg/kg i.p. 28-day
# Experimental: G-2-MePE was administered at the dose of 100 mg/kg i.p. in 0.1 ml saline, once daily for 28 days. Vehicle-treated animals were injected with 0.1 ml saline daily for 28 days. Thereafter, drug or vehicle treatments were stopped and animals were tested on successive days until all tests were completed. Finally, the animals were sacrificed for determining expression of pAkt and pERK Mice are a social species, which engage in easily scored social behaviors including approaching, following, sniffing, allogrooming, aggressive encounters, sexual interactions, parental behaviors, nesting and sleeping in a group huddle. In the present studies, social recognition and social memory in mice were evaluated by assessing the amount of time spent sniffing a novel mouse upon repeated exposures, to induce familiarity, and reinstatement of high levels of sniffing when a novel stimulus animal is introduced.
compound,measurement,setting,value
"C[C@@]1(C(=O)N[C@@H](CCC(=O)O)C(=O)O)CCCN1C(=O)CN [Example G-2-MePE, Glycyl-L-2-methylprolyl-L-glutamic acid] (HELM PEPTIDE1{G.[C[C@@]1(C(=O)[*:2])CCCN1[*:1]].E}$$$$V2.0)",pattern of time spent in successive alleys,fmr1 knockout mice [1],reinstated the normal pattern of behavior
same,phosphorylated ERK1/2 (pERK),"ERK1/2; fmr1 KO vs vehicle, p<0.05",significantly reduced
same,total ERK expression levels,ERK1/2; fmr1 KO,increase in ERK expression levels
same,motor seizures and non-convulsive seizures,MeCP2 deficient mice,effective in decreasing both motor seizures and non-convulsive seizures
same,percent open arm entries,fmr1 knockout mice [2]; 100 mg/kg i.p. 28 days,completely normalised
same,time spent in the centre,fmr1 knockout mice [2]; 28-days treatment,normalised
same,heightened sniffing of the presented mouse,fmr1 knockout mice [3]; fmr1 KO,nullified
same,sniffing,fmr1 knockout mice [3]; wild-type group,no significant effect
